Data set [1] addresses T1, recombinant human secreted phospholipase A2 (Homo sapiens, UniProt P14555).
T1 sequence (P14555 21-144): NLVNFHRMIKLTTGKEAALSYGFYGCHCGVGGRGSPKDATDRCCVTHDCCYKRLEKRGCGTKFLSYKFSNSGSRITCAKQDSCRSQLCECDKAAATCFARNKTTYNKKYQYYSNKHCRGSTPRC
As to the kind of experiment: chromogenic assay for inhibitors of recombinant human secreted phospholipase A2. In kind it is biochemical. The settings on record: diheptanoyl thio-PC substrate, pH 7.5, 40° C. for 30 minutes, absorbance at 405 nanometers, titrated in triplicate. The source says: The following chromogenic assay procedure was used to identify and evaluate inhibitors of recombinant human secreted phospholipase A2. The assay described herein has been adapted for high volume screening using 96 well microtiter plates. A general description of this assay method is found in the article, “Analysis of Human Synovial Fluid Phospholipase A2 on Short Chain Phosphatidylcholine-Mixed Micelles: Development of a Spectrophotometric Assay Suitable for a Microtiterplate Reader”, by Laure J. Reynolds, Lori L. Hughes, and Edward A Dennis, Analytical Biochemistry, 204, pp. 190-197, 1992 (the disclosure of which is incorporated herein by reference):
A measured volume of racemic dipheptanoyl thio PC supplied in chloroform at a concentration of 100 mg/ml is taken to dryness and redissolved in 10 millimolar TRITON X-100™ nonionic detergent aqueous solution. Reaction Buffer is added to the solution, then DTNB to give the Reaction Mixture.
The reaction mixture thus obtained contains 1 mM diheptanoly thio-PC substrate, 0.29 mm Triton X-100™ detergent, and 0.12 mm DTMB in a buffered aqueous solution at pH 7.5.
• 1. Add 0.2 ml reaction mixture to all wells; • 2. Add 10 ul test compound (or solvent blank) to appropriate wells, mix 20 seconds; • 3. Add 50 nanograms of sPLA2 (10 microliters) to appropriate wells; • 4. Incubate plate at 40° C. for 30 minutes; • 5. Read absorbance of wells at 405 nanometers with an automatic plate reader.
Tests were done in triplicate. Typically, compounds were tested at a final concentration of 5 ug/ml. […] Lack of color development at 405 nanometers evidenced inhibition. Compounds initially found to be active were re-assayed to confirm their activity and, if sufficiently active, IC50 values were determined. […] In all cases, % inhibition measured at 405 nanometers generated by enzyme reactions containing inhibitors relative to the uninhibited control reactions was determined. […] IC50 values were determined by plotting log concentration versus inhibition values in the range from 10-90% inhibition.

The text below walks through data of patent publication US6930123B2, “sPLA2 inhibitors” (Eli Lilly and Company, priority 2000, dated 2005).

For the molecule `CCOC(=O)COc1c2ccccc2cc2c1c(C(=O)C(N)=O)c(CC)n2Cc1ccccc1` [Example 1, 2-[[3-(2-amino-1,2-dioxoethyl)-1-benzyl-2-ethyl-1H-benz[f]indol-4-yl]oxy]acetic acid ethyl ester], the IC50 in data set [1] worked out at 1.3 µM.

In the case of `CCc1c(C(=O)C(N)=O)c2c(OCC(=O)OCc3ccccc3)c3ccccc3cc2n1Cc1ccccc1` [Example 2, 2-[[3-(2-amino-1,2-dioxoethyl)-1-benzyl-2-ethyl-1H-benz[f]indol-4-yl]oxy]acetic acid benzyl ester], in data set [1], the IC50 was 14.3 µM.

With `CCc1c(C(=O)C(N)=O)c2c(OCC(=O)O)c3ccccc3cc2n1Cc1ccccc1` [Example 3, 2-[[3-(2-amino-1,2-dioxoethyl)-1-benzyl-2-ethyl-1H-benz[f]indol-4-yl]oxy]acetic acid], the melting point was 243 to 253 °C (dec.). For the same molecule, the 50% inhibitory concentration (IC50) in data set [1] was determined as 1.06 µM.

What is called IC50 is the point on the concentration scale where inhibition reaches its midpoint. For orientation: melting point means the temperature of the solid-liquid transition.
